Laboratory results as given in patent publication US8933113B2 (Merck Sharp & Dohme Corp., priority 2011, dated 2015).

Target: T1, full-length human Mineralocorticoid Receptor (MR) (Homo sapiens, UniProt P08235)
T1 construct: host or cells: PathHunter CHO-K1 cells
T1 sequence (P08235 1-984): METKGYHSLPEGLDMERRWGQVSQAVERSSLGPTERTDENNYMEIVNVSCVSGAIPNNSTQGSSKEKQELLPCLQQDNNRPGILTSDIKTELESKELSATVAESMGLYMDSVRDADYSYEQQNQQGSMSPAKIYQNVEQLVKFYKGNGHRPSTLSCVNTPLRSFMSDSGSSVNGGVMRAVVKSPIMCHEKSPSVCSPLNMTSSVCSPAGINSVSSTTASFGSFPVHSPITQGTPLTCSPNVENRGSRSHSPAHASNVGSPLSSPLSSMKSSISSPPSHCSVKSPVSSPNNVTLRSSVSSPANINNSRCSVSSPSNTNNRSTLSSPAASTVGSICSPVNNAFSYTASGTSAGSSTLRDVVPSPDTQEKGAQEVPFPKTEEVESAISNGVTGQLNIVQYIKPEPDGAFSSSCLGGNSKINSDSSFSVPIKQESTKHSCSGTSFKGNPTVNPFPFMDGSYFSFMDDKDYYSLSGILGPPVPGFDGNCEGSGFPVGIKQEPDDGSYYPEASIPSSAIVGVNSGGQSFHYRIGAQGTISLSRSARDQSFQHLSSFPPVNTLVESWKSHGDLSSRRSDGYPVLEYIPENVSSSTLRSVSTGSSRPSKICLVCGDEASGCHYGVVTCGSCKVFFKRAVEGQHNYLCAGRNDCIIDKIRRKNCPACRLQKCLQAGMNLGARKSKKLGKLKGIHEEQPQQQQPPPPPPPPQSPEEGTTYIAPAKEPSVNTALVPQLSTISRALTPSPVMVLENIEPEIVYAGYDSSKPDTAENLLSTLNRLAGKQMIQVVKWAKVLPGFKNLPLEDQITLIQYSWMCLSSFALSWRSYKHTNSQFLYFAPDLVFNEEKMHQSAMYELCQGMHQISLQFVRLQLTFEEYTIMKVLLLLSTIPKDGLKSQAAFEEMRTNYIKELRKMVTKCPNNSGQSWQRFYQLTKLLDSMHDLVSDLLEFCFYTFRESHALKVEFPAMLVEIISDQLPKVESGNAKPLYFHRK
Assay: human MR NH Pro assay (PathHunter Protein:Protein interaction assay), MR antagonist activity
Assay type: cell-based
Details: PathHunter CHO-K1 cells overexpressing human MR; aldosterone about 0.3 nM; 6 hours at 37° C.; luminescence; read-out: Primary Assay IP rating (IP = inflection point for a given dose-response titration curve)
From the text: The activity of the compounds of the present invention regarding mineralocorticoid receptor antagonism can be evaluated using the following assay.
Assessment of MR Potency in HMR NH Pro Assay
The human MR NH Pro assay is a commercially available PathHunter™ Protein:Protein interaction assay (DiscoveRx; http://www.discoverx.com/nhrs/prod-nhrs.php) that measures the ability of compounds to antagonize full-length human Mineralocorticoid Receptor (MR) binding to a coactivator peptide.
6. Test compounds are titrated starting at 4.4 mM, 10-point titration in 1:3 dilution.
3. Add 5 μL 6× agonist (final aldosterone concentration should be about 0.3 nM to about 1.0 nM) to all wells (using the PlateMate Plus.)
• (ThermoFisher) (except those wells in columns 23 and 24) 4. Add 5 uL of assay media to all wells in column 23 and 24. 5. Incubate 6 hrs at 37° C., 5% CO2. 6. Add 15 uL 3× DiscoveRx detection reagent to each well. 7. Incubate 1 hour at room temperature (keep plates stored in the dark). 8. Read plates on Envision (PerkinElmer) luminesence plate reader and analyze using ADA.

Compound	IC50
CCC(C(C)=O)(c1ccc(Cl)cc1)n1ncc2c(NS(C)(=O)=O)cccc21 (single isomer, unassigned) [Compound 101, N-(1-(3-(4-chlorophenyl)-2-oxopentan-3-yl)-1H-indazol-4-yl)methanesulfonamide]	100 to 500 nM
CCC(C(C)=O)(c1ccc(C(F)(F)F)cc1)n1ccc2c(NS(C)(=O)=O)cccc21 (single isomer, unassigned) [Compound 102, N-(1-(2-oxo-3-(4-(trifluoromethyl)phenyl)pentan-3-yl)-1H-indol-4-yl)methanesulfonamide]	100 to 500 nM
CCC(C(C)=O)(c1ccc(C(F)(F)F)cc1)n1ccc2c(NS(C)(=O)=O)cccc21 (single isomer, unassigned) [Compound 103, N-(1-(2-oxo-3-(4-(trifluoromethyl)phenyl)pentan-3-yl)-1H-indol-4-yl)methanesulfonamide]	100 to 500 nM
CCC(C(C)=O)(c1ccc(C(F)(F)F)cc1)n1ncc2c(NS(C)(=O)=O)cccc21 (single isomer, unassigned) [Compound 104, N-(1-(2-oxo-3-(4-(trifluoromethyl)phenyl)pentan-3-yl)-1H-indazol-4-yl)methanesulfonamide]	100 to 500 nM
CCC(c1ccc(Cl)cc1)(C(C)O)n1ncc2c(NS(C)(=O)=O)cccc21 (single isomer, unassigned) [Compound 107]	< 100 nM
CCC(c1ccc(Cl)cc1)(C(C)O)n1ccc2c(NS(C)(=O)=O)cccc21 (single isomer, unassigned) [Compound 108, N-(1-(3-(4-chlorophenyl)-2-hydroxypentan-3-yl)-1H-indol-4-yl)methanesulfonamide]	< 100 nM
CCC(c1ccc(Cl)cc1)(C(C)O)n1ccc2c(NS(C)(=O)=O)cccc21 (single isomer, unassigned) [Compound 109, N-(1-(3-(4-chlorophenyl)-2-hydroxypentan-3-yl)-1H-indol-4-yl)methanesulfonamide]	< 100 nM
CCC(c1ccc(Cl)cc1)(C(C)O)n1ccc2c(NS(C)(=O)=O)cc(F)cc21 (single isomer, unassigned) [Compound 111, N-(1-(3-(4-chlorophenyl)-2-hydroxypentan-3-yl)-6-fluoro-1H-indol-4-yl)methanesulfonamide]	< 100 nM
CCC(c1ccc(C(F)(F)F)cc1)(C(C)O)n1ccc2c(NS(C)(=O)=O)cccc21 (single isomer, unassigned) [Compound 113, N-(1-(2-hydroxy-3-(4-(trifluoromethyl)phenyl)pentan-3-yl)-1H-indol-4-yl)methanesulfonamide]	< 100 nM
CCC(c1ccc(C(F)(F)F)cc1)(C(C)O)n1ccc2c(NS(C)(=O)=O)cccc21 (single isomer, unassigned) [Compound 114, N-(1-(2-hydroxy-3-(4-(trifluoromethyl)phenyl)pentan-3-yl)-1H-indol-4-yl)methanesulfonamide]	< 100 nM
CCC(c1ccc(C(F)(F)F)cc1)(C(C)O)n1ncc2c(NS(C)(=O)=O)cccc21 (single isomer, unassigned) [Compound 115, N-(1-(2-hydroxy-3-(4-(trifluoromethyl)phenyl)pentan-3-yl)-1H-indazol-4-yl)methanesulfonamide]	< 100 nM
CCC(c1ccc(C(F)(F)F)cc1)(C(C)O)n1ncc2c(NS(C)(=O)=O)cccc21 (single isomer, unassigned) [Compound 116, N-(1-(2-hydroxy-3-(4-(trifluoromethyl)phenyl)pentan-3-yl)-1H-indazol-4-yl)methanesulfonamide]	< 100 nM
CCC(c1ccc(C(F)(F)F)cc1)(C(C)O)n1ncc2c(NS(C)(=O)=O)cccc21 (single isomer, unassigned) [Compound 117, N-(1-(2-hydroxy-3-(4-(trifluoromethyl)phenyl)pentan-3-yl)-1H-indazol-4-yl)methanesulfonamide]	< 100 nM
CCC(CC#N)(c1ccc(Cl)cc1)n1ccc2c(NS(C)(=O)=O)cccc21 (single isomer, unassigned) [Compound 121, N-(1-(2-(4-chlorophenyl)-1-cyanobutan-2-yl)-1H-indol-4-yl)methanesulfonamide]	< 100 nM
CCC(CC#N)(c1ccc(Cl)cc1)n1ccc2c(NS(C)(=O)=O)cccc21 (single isomer, unassigned) [Compound 122, N-(1-(2-(4-chlorophenyl)-1-cyanobutan-2-yl)-1H-indol-4-yl)methanesulfonamide]	< 100 nM
CCC(CC#N)(c1ccc(Cl)cc1)n1ncc2c(NS(C)(=O)=O)cccc21 (single isomer, unassigned) [Compound 123, N-(1-(2-(4-chlorophenyl)-1-cyanobutan-2-yl)-1H-indazol-4-yl)methanesulfonamide]	< 100 nM
CCC(CC#N)(c1ccc(Cl)cc1)n1ccc2c(NS(C)(=O)=O)cc(F)cc21 (single isomer, unassigned) [Compound 124, N-(1-(2-(4-chlorophenyl)-1-cyanobutan-2-yl)-6-fluoro-1H-indol-4-yl)methanesulfonamide]	100 to 500 nM

The remaining lines, values ahead:

IC50	Compound
< 100 nM	CCC(C=C(C)C#N)(c1ccc(Cl)cc1)n1ccc2c(NS(C)(=O)=O)cccc21 (mixture of isomers) [Compound 131, N-(1-(3-(4-chlorophenyl)-5-cyanohex-4-en-3-yl)-1H-indol-4-yl)methanesulfonamide]
< 100 nM	CCC(CO)(c1ccc(Cl)cc1)n1ncc2c(NS(C)(=O)=O)cccc21 (single isomer, unassigned) [Compound 88, N-(1-(2-(4-chlorophenyl)-1-hydroxybutan-2-yl)-1H-indazol-4-yl)methanesulfonamide]
< 100 nM	CCC(c1ccc(Cl)cc1)(n1ccc2c(NS(C)(=O)=O)cc(F)cc21)C(C)(C)O (single isomer, unassigned) [Compound 90, N-(1-(3-(4-chlorophenyl)-2-hydroxy-2-methylpentan-3-yl)-6-fluoro-1H-indol-4-yl)methane sulfonamide]
< 100 nM	CCC(c1ccc(Cl)cc1)(n1ccc2c(NS(C)(=O)=O)cccc21)C(C)(C)O (single isomer, unassigned) [Compound 91, N-(1-(3-(4-chlorophenyl)-2-hydroxy-2-methylpentan-3-yl)-1H-indol-4-yl)methane sulfonamide]
< 100 nM	CCC(c1ccc(Cl)cc1)(n1ncc2c(NS(C)(=O)=O)cccc21)C(C)(C)O (single isomer, unassigned) [Compound 92, N-(1-(3-(4-chlorophenyl)-2-hydroxy-2-methylpentan-3-yl)-1H-indazol-4-yl)methane sulfonamide]
< 100 nM	CCC(c1ccc(C(F)(F)F)cc1)(n1ncc2c(NS(C)(=O)=O)cccc21)C(C)(C)O (single isomer, unassigned) [Compound 93, N-(1-(2-hydroxy-2-methyl-3-(4-(trifluoromethyl)phenyl)pentan-3-yl)-1H-indazol-4-yl)methane sulfonamide]
< 100 nM	CCC(COC)(c1ccc(Cl)cc1)n1ccc2c(NS(C)(=O)=O)cccc21 (single isomer, unassigned) [Compound 96, N-(1-(2-(4-chlorophenyl)-1-methoxybutan-2-yl)-1H-indol-4-yl)methanesulfonamide]
< 100 nM	CCC(COC)(c1ccc(Cl)cc1)n1ncc2c(NS(C)(=O)=O)cccc21 (single isomer, unassigned) [Compound 97, N-(1-(2-(4-chlorophenyl)-1-methoxybutan-2-yl)-1H-indazol-4-yl)methanesulfonamide]
< 100 nM	CCC(C(C)=O)(c1ccc(Cl)cc1)n1ncc2c(NS(C)(=O)=O)cccc21 (single isomer, unassigned) [Compound 100, N-(1-(3-(4-chlorophenyl)-2-oxopentan-3-yl)-1H-indazol-4-yl)methanesulfonamide]
< 100 nM	CCC(c1ccc(Cl)cc1)(C(C)O)n1ncc2c(NS(C)(=O)=O)cccc21 (single isomer, unassigned) [Compound 106]
